Patent US8871728B2, “Non-peptide macrocyclic histone deacetylese (HDAC) inhibitors and methods of making and using thereof” (Georgia Tech Research Corporation, priority 2007, dated 2014)

Experiments:
[1] = tested on: HeLa nuclear extract HDAC1/2; test: Fluor de Lys HDAC inhibition, HeLa nuclear extract; format: biochemical, human; conditions: HeLa nuclear extract; average of three independent experiments; Table 4; read-out: HDAC ½
Excerpt: Fluor de Lys™ is a fluorescence based HDAC activity assay comprising a combination of fluorogenic Histone deAcetylase Lysyl substrate and a developer. The kit is a highly sensitive and convenient alternative to radiolabeled, acetylated histones or peptide/HPLC methods for the assay of histone deacetylases. This assay is based on the ability of HeLa nuclear extract, which is enriched in HDAC activity, to mediate the deacetylation of the acetylated lysine side chain of the Fluor de Lys substrate. The assay procedure requires two steps. First, incubation of the HeLa nuclear extract with the Fluor de Lys substrate results in substrate deacetylation and thus sensitizes it to the second step. In the second step, treatment of the deacetylated substrate with the Fluor de Lys developer produces a fluorophore. The substrate-developer reaction, under normal circumstances goes to completion in less than 1 min at 25° C. The kit used was the Fluorimetric Assay/Drug Discovery Kit—AK-500 Manual Fluorescent Assay System available from BIOMOL® International, Plymouth Meeting, Pa.
Each IC50 value was obtained by averaging three independent experiments.

[2] = target: T1, HDAC8 (Homo sapiens (Human), UniProt Q9BY41); test: Fluor de Lys HDAC8 inhibition; format: biochemical; conditions: average of three independent experiments; Table 4; read-out: HDAC 8
T1 sequence (Q9BY41 whole entry): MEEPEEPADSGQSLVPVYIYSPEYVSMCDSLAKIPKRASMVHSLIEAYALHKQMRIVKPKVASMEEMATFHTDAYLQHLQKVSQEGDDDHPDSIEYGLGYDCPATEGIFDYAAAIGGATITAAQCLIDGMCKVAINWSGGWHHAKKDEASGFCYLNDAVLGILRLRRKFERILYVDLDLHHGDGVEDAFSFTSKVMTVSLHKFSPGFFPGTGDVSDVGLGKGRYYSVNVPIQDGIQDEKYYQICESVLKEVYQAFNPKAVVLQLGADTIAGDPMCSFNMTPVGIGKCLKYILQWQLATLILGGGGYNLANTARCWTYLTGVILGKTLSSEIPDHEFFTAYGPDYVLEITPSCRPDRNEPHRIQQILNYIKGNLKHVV

[3] = target: HDAC6 (Homo sapiens (Human), UniProt Q9UBN7); test: SAMDI mass spectrometry HDAC inhibition assay; format: biochemical; conditions: for HDAC6 inhibition, symbol / IC50: SAMDI; for inhibition at 10 µM: read-out: HDAC6 % inhibition; for IC50: read-out: HDAC6 IC50
Chain of HDAC6 (Q9UBN7 whole entry): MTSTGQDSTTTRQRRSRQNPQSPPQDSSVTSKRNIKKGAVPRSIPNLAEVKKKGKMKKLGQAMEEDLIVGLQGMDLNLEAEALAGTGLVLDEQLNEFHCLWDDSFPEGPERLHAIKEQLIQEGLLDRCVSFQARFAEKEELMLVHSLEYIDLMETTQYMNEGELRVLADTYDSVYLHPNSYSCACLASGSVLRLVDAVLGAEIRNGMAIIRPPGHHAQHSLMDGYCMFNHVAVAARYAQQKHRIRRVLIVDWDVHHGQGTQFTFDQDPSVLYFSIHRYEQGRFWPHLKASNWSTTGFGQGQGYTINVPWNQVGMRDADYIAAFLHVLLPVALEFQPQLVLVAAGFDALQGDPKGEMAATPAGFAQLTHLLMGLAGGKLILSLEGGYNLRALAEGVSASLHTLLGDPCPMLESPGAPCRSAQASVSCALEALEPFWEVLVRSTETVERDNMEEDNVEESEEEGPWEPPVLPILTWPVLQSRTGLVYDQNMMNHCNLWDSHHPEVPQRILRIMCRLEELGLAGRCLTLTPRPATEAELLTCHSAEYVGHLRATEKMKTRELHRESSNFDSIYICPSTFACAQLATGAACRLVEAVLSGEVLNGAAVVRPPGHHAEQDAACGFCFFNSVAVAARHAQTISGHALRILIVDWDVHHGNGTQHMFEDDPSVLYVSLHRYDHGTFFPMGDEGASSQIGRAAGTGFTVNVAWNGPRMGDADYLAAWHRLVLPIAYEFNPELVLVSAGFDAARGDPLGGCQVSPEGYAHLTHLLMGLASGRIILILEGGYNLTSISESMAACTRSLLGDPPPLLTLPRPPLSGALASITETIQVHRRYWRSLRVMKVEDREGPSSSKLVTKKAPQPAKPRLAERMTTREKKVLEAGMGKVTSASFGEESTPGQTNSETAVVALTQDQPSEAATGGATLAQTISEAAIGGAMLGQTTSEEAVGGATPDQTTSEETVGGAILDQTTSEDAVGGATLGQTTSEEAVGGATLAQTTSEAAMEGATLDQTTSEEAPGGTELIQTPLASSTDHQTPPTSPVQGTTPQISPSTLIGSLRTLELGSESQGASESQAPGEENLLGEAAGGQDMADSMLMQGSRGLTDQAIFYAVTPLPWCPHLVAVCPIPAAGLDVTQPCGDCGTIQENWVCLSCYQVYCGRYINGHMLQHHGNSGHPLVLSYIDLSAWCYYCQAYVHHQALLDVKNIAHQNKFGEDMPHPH
Experimental: (§1) There is precedence that fluorescently labeled substrates can perturb enzyme activity and the effect of inhibitors. […] Additionally, 3-hydroxypyridine-2-ones are highly colored solids and might lead to false positive signals. Mindful of these facts, a label-free SAMDI (self-assembled monolayers for MALDI) mass spectrometry assay was also used to assess HDAC inhibition.
The SAMDI technique, wherein self-assembled monolayers (SAM) of alkanethiolates on gold are analyzed by matrix assisted laser desorption/ionization (MALDI) mass spectrometry, has been widely used to characterize many biochemical activities, including the deacetylase enzyme family. The SAMDI assay was used to measure the inhibition constant (K1) of fragments against HDAC1, HDAC6 and HDAC8 using a previously identified preferred HDAC substrate.

[4] = target: HDAC1 (Homo sapiens (Human), UniProt Q13547); test: SAMDI mass spectrometry HDAC inhibition assay; format: biochemical; conditions: for HDAC1 % inhibition / inhibition at 10 µM: at 10 μM, given if the IC50 was above 10 μM; for HDAC1 inhibition, symbol: SAMDI
Chain of HDAC1 (Q13547 whole entry): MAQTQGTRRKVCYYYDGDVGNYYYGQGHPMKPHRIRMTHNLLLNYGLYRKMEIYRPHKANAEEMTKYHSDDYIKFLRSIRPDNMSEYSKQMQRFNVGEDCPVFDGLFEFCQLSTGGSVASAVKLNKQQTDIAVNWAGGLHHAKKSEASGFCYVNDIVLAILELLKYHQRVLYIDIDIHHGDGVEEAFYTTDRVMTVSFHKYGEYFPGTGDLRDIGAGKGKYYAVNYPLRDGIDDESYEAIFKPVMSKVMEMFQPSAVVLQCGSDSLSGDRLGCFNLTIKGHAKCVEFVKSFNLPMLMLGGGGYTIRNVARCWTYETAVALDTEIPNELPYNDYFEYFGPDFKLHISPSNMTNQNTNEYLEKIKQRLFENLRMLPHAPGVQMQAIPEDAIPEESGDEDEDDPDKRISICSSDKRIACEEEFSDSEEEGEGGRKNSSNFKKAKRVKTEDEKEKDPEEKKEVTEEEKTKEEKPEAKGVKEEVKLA
Experimental: as §1
(§2) The SAMDI technique, wherein self-assembled monolayers (SAM) of alkanethiolates on gold are analyzed by matrix assisted laser desorption/ionization (MALDI) mass spectrometry, has been widely used to characterize many biochemical activities, including the deacetylase enzyme family.

[5] = target: T1, HDAC8; test: SAMDI mass spectrometry HDAC inhibition assay; format: biochemical; conditions: for HDAC8 % inhibition / inhibition at 10 µM: at 10 μM, given if the IC50 was above 10 μM; for IC50: read-out: HDAC8 IC50
Experimental: as §1, §2

Row | Structure (SMILES) | HDAC6 inhibition, symbol [3] | inhibition at 10 µM [4] [%] | inhibition at 10 µM [5] [%] | HDAC1 inhibition, symbol [4] | other results
1 | CC[C@H]1OC(=O)[C@H](C)[C@@H](O[C@H]2C[C@@](C)(OC)[C@@H](O)[C@H](C)O2)[C@H](C)[C@@H](O[C@@H]2O[C@H](C)C[C@H](N(C)Cc3ccc(NC(=O)CCCCCCC(=O)NO)cc3)[C@H]2O)[C@](C)(O)C[C@@H](C)CN(C)[C@H](C)[C@@H](O)[C@]1(C)O [Compound 36, Azithromycin-arylalkyl hydroxamic acid] | – | – | – | – | IC50 [1]: 0.107 µM; IC50 [2]: 6.68 µM
2 | CC[C@H]1OC(=O)[C@H](C)[C@@H](O)[C@H](C)[C@@H](O[C@@H]2O[C@H](C)C[C@H](N(C)Cc3ccc(NC(=O)CCCCCCC(=O)NO)cc3)[C@H]2O)[C@](C)(O)C[C@@H](C)CN(C)[C@H](C)[C@@H](O)[C@]1(C)O [Compound 38, Desclasinose-azithromycin-arylalkyl hydroxamic acid] | – | – | – | – | IC50 [1]: 0.11 µM; IC50 [2]: 2.32 µM
3 | O=c1c(O)cccn1CCCCCn1cc(-c2ccccc2)nn1 [Compound 159d, 1-Phenyltriazolylpentyl-3-hydroxypyridine-2-one] | NI (No significant Inhibition (below 20% Inhibition)) | – | – | – | HDAC1 % inhibition [4]: 43%; HDAC8 % inhibition [5]: 30%
4 | N#Cc1ccc(-c2cn(CCCCCn3cccc(O)c3=O)nn2)cc1C(F)(F)F [Compound 166g, 1-(4-(3-Trifluomethyl)-benzonitrile)triazolylpentyl-3-hydroxypyridine-2-one] | NI (No significant Inhibition (below 20% Inhibition)) | 71 | 14 | – | –
5 | O=c1c(O)cccn1CCCCn1cc(-c2ccccc2)nn1 [Compound 159c, 1-Phenyltriazolylbutyl-3-hydroxypyridine-2-one] | NI (No significant Inhibition (below 20% Inhibition)) | 15 | 10 | – | HDAC1 % inhibition [4]: 12%; HDAC8 % inhibition [5]: 5%
6 | CC[C@H]1OC(=O)[C@H](C)[C@@H](O[C@H]2C[C@@](C)(OC)[C@@H](O)[C@H](C)O2)[C@H](C)[C@@H](O[C@@H]2O[C@H](C)C[C@H](N(C)Cc3ccc(-c4cn(CCCCCCCCCC(=O)NO)nn4)cc3)[C@H]2O)[C@](C)(OC)C[C@@H](C)C(=O)[C@H](C)[C@@H](O)[C@]1(C)O [Compound 30, Clarithromycin-N-Phenyltriazolyldecahydroxamic acid] | – | – | – | – | IC50 [1]: 0.223 µM
7 | O=c1c(O)cccn1CCCn1cc(-c2ccccc2)nn1 [Compound 159b, 1-Phenyltriazolylpropyl-3-hydroxypyridine-2-one] | – | 8 | 47 | – | inhibition at 10 µM [3]: 41%
8 | N#Cc1ccc(-c2ccc(Cn3cccc(O)c3=O)cc2)cc1 [Compound 148a] | NI (No significant Inhibition (below 20% Inhibition)) | – | 16 | NI (No significant Inhibition (below 20% Inhibition)) | –
9 | Oc1cccn(CCn2cc(-c3ccccc3)nn2)c1=S [Compound 161, 1-Phenyltriazolylethyl-3-hydroxypyridine-2-thione] | – | 21 | 56 | – | inhibition at 10 µM [3]: 14%
10 | CN(C)c1ccc(-c2ccc(Cn3cccc(O)c3=O)cc2)cn1 [Compound 148h] | NI (No significant Inhibition (below 20% Inhibition)) | – | 37 | NI (No significant Inhibition (below 20% Inhibition)) | –
11 | Cc1cccc(-c2cn(CCCCCn3cccc(O)c3=O)nn2)c1 [Compound 166b, 1-(3-Tolyl)triazolylpentyl-3-hydroxypyridine-2-one] | NI (No significant Inhibition (below 20% Inhibition)) | 88 | – | – | HDAC8 inhibition, symbol ([5]; SAMDI): NI (No significant Inhibition (below 20% Inhibition))
12 | O=c1c(O)cccn1Cc1cn(-c2ccccc2)nn1 [Compound 152a, 1-Phenyltriazolylmethyl-3-hydroxypyridine-2-one] | NI (No significant Inhibition (below 20% Inhibition)) | – | 17 | NI (No significant Inhibition (below 20% Inhibition)) | –
13 | Cc1cccc(-c2ccc(Cn3cccc(O)c3=S)cc2)c1 [Compound 149e, 1-(3-Methyl-(1,1′-biphenylmethyl))-3-hydroxyoxypyridine-2-thione] | – | – | – | NI (No significant Inhibition (below 20% Inhibition)) | IC50 [3]: 0.812 ± 0.286 µM; IC50 ([5]; SAMDI): 2.5 ± 1.18 µM
14 | Oc1cccn(Cc2ccccc2)c1=S [Compound 144b, 1-Benzyl-3-hydroxypyridine-2-thione] | – | – | – | NI (No significant Inhibition (below 20% Inhibition)) | IC50 [3]: 0.457 ± 0.027 µM; HDAC8 activity, fold superior compared to 144e ([5]; SAMDI): 2 fold; IC50 ([5]; SAMDI): 1.27 ± 0.2 µM
15 | CN(C)c1ccc(-c2ccc(Cn3cccc(O)c3=S)cc2)cn1 [Compound 149h] | – | – | 34 | NI (No significant Inhibition (below 20% Inhibition)) | IC50 [3]: 2.39 ± 0.458 µM
16 | Cc1cccc(-c2ccc(Cn3cccc(O)c3=O)cc2)c1 [Compound 148e, 1-(3-Methyl-(1,1′-biphenylmethyl))-3-hydroxyoxypyridine-2-one] | NI (No significant Inhibition (below 20% Inhibition)) | – | – | NI (No significant Inhibition (below 20% Inhibition)) | HDAC8 inhibition, symbol ([5]; SAMDI): NI (No significant Inhibition (below 20% Inhibition))
17 | CN(C)c1ccc(-n2cc(Cn3cccc(O)c3=O)nn2)cc1 [Compound 152b, 1-(4-Dimethylamino)phenylltriazolylmethyl-3-hydroxypyridine-2-one] | NI (No significant Inhibition (below 20% Inhibition)) | – | 8 | NI (No significant Inhibition (below 20% Inhibition)) | –
18 | N#Cc1cccc(-c2cn(CCCCCn3cccc(O)c3=O)nn2)c1 [Compound 166e, 1-(3-Benzonitrile)triazolylpentyl-3-hydroxypyridine-2-one] | NI (No significant Inhibition (below 20% Inhibition)) | 71 | – | – | HDAC8 inhibition, symbol ([5]; SAMDI): NI (No significant Inhibition (below 20% Inhibition))
19 | Cn1cccc(O)c1=O [Compound 142a, 1-Methyl-3-hydroxypyridine-2-one] | NI (No significant Inhibition (below 20% Inhibition)) | – | 8 | NI (No significant Inhibition (below 20% Inhibition)) | –
20 | Oc1cccn(Cc2ccc(-c3ccncc3)cc2)c1=S [Compound 149i, 1-(4-(Pyridin-4-yl)benzyl)-3-hydroxypyridine-2-thione] | – | – | – | NI (No significant Inhibition (below 20% Inhibition)) | IC50 [3]: 2.2 ± 0.355 µM; IC50 ([5]; SAMDI): 2.78 ± 0.323 µM
21 | N#Cc1ccc(-c2cn(CCCCCn3cccc(O)c3=S)nn2)cc1C(F)(F)F [Compound 167g, 1-(4-(3-Trifluomethyl)-benzonitrile)triazolylpentyl-3-hydroxypyridine-2-thione] | – | 55 | – | – | IC50 [3]: 0.661 ± 0.121 µM; IC50 ([5]; SAMDI): 2.26 µM
22 | CN(C)c1ccc(-c2cn(CCCCCn3cccc(O)c3=O)nn2)cc1 [Compound 166f, 1-(4-(N,N-dimethylaniline))triazolylpentyl-3-hydroxypyridine-2-one] | NI (No significant Inhibition (below 20% Inhibition)) | 59 | 28 | – | –
23 | N#Cc1cccc(-c2ccc(Cn3cccc(O)c3=O)cc2)c1 [Compound 148b, 1-(3-Cyano-(1,1′-biphenylmethyl))-3-hydroxyoxypyridine-2-one] | NI (No significant Inhibition (below 20% Inhibition)) | – | 9 | NI (No significant Inhibition (below 20% Inhibition)) | –
